The record followed here is ChEMBL document CHEMBL4266002, “Acyloxybenzyl and Alkoxyalkyl Prodrugs of a Fosmidomycin Surrogate as Antimalarial and Antitubercular Agents” (ACS Med Chem Lett, 2018).

Molecules are shown by their SMILES. Bounds are passed on as bounds.

In one data set the test system is Plasmodium falciparum. Description: Antiplasmodial activity against chloroquine-resistant Plasmodium falciparum K1 infected in human erythrocytes measured after 72 hrs Malstat/NBT reagent based assay. As to conditions: K1, 72 h. It counts as functional, organism-based.
Data set [1] relates to Mycobacterium tuberculosis. Kind of data set: Antimicrobial activity against Mycobacterium tuberculosis H37Ra ATCC 25177 after 7 days by luminometric method. It counts as functional, organism-based. As to conditions: H37Ra ATCC 25177, 168 h.
The test system of the next data set is MRC5. Description: Cytotoxicity against human MRC5 cells after 24 hrs by resazurin assay. It counts as cell-based. Conditions: MRC5, 24 h.
Data set [2] in a line: Selectivity index, ratio of IC50 for human MRC5 cells to IC50 for chloroquine-resistant Plasmodium falciparum K1 infected in human erythrocytes. The format is toxicity, cell-based. Conditions: read-out: Ratio IC50.
Data set [3] is described as follows: Selectivity index, ratio of IC50 for human MRC5 cells to IC50 for Mycobacterium tuberculosis H37Ra ATCC 25177. The format is toxicity. As to conditions: read-out: Ratio IC50.
The nature of data set [4]: Stability in human serum at 1 mM after 30 to 60 mins by UPLC method. The format is ADME, cell-free. As to conditions: 1000 µM.
Data set [5] is described as follows: Oral bioavailability in patient with malaria. As to conditions: human, in vivo. The format is ADME, organism-based.
Data set [6] in a line: Half life in patient with malaria. The format is ADME, organism-based. Conditions: human, in vivo.

In the case of `CCCCCCCCC(=O)Oc1ccc(COP(=O)(CCCC(=O)N(C)O)OCc2ccc(OC(=O)CCCCCCCC)cc2)cc1`, the IC50 (commonly the concentration at which inhibition is half-maximal) stood at 300 nM with Plasmodium falciparum, 1760 nM in data set [1] and 12600 nM in the data set with MRC5. The selectivity ratio in data set [2] was determined as 42; in data set [3], 7.6. Further, in data set [4], the Stability result was “Stable”.

Consider `CC(=O)N(O)CCCP(=O)(O)O` [FR-900098], for which, in data set [1], the IC50 is above 64000 nM.

Molecule `CN(O)C(=O)CCCP(=O)(O)O` yielded an IC50 in data set [1] above 64000 nM.

On to `CN(O)C(=O)CCCP(=O)(OCc1ccc(OC(=O)c2ccccc2)cc1)OCc1ccc(OC(=O)c2ccccc2)cc1`, for which the results for the IC50 (with Plasmodium falciparum; in data set [1]; in the data set on MRC5) were 30 nM, 420 nM and 610 nM, respectively. The selectivity ratio in data set [2] came to 20; in data set [3] it was 1.5. For the same molecule, the Stability entry in data set [4] is recorded as “Stable”.

For the molecule `CCCCCCCCCCCCOCCCOP(=O)(O)CCCC(=O)N(C)O`, the IC50 in the data set with Plasmodium falciparum is 820 nM; in data set [1], above 64000 nM; with MRC5, 55900 nM. Also, the selectivity ratio in data set [2] is 68.

For `CN(O)C(=O)CCCP(=O)(OCOC(=O)C(C)(C)C)OCOC(=O)C(C)(C)C`, the IC50 in the data set with Plasmodium falciparum is 730 nM; in data set [1], 44300 nM; in the data set on MRC5, above 64000 nM. Also, the selectivity ratio in data set [2] is above 88; in data set [3] it was above 1.4. Moreover, the Stability result in data set [4] was “Stable”.

`O=CN(O)CCCP(=O)([O-])O.[Na+]` [FOSMIDOMYCIN SODIUM]: the IC50 (in data set [1]; in the data set on MRC5) was above 64000 nM each time. For the same molecule, the bioavailability (in general, dose-corrected exposure relative to a reference, in per cent) in data set [5] amounted to 30%. Moreover, the half-life – broadly, the time in which the quantity being followed falls by half – in data set [6] is 2 h.

For `CCCCCCCCCCCCCCCCOCCCOP(=O)(O)CCCC(=O)N(C)O`, the IC50 in the data set on Plasmodium falciparum is 950 nM; in data set [1], above 64000 nM; in the data set with MRC5, 24500 nM. Moreover, in data set [2], the selectivity ratio amounted to 26.

For the molecule `CCCCCCCCCCCCCCCCOCCCOP(=O)(CCCC(=O)N(C)O)OCCCOCCCCCCCCCCCCCCCC`, the IC50 in the data set with Plasmodium falciparum was 42000 nM; in data set [1], above 64000 nM; in the data set with MRC5 it was above 64000 nM. The selectivity ratio in data set [2] was above 1.5.

Turning to `CCCCOCCCOP(=O)(O)CCCC(=O)N(C)O`, the results for the IC50 (in the data set with Plasmodium falciparum; in data set [1]; with MRC5) were 16000 nM, above 64000 nM and above 64000 nM, respectively. For the same molecule, the selectivity ratio in data set [2] is above 4.

Take `CCCCCCCCOCCCOP(=O)(O)CCCC(=O)N(C)O`: the IC50 is 1900 nM with Plasmodium falciparum, above 64000 nM in data set [1] and above 64000 nM in the data set with MRC5. Also, in data set [2], the selectivity ratio was above 34.

As to `CC(C)OC(=O)OCOP(=O)(CCCC(=O)N(C)O)OCOC(=O)OC(C)C`, the figures for the IC50 (in the data set with Plasmodium falciparum; in data set [1]; in the data set on MRC5) were 80 nM, above 64000 nM and 55700 nM, respectively. Also, the selectivity ratio in data set [2] is 743. Besides, in data set [4], the Stability result was “Stable”.

As to `CN(O)C(=O)CCCP(=O)(OCc1ccc(OC(=O)C(C)(C)C)cc1)OCc1ccc(OC(=O)C(C)(C)C)cc1`, the results for the IC50 (in the data set with Plasmodium falciparum; in data set [1]; in the data set on MRC5) were 160 nM, 430 nM and 980 nM, respectively. For the same molecule, the selectivity ratio in data set [2] came to 6.1; in data set [3], 2.3. Besides, the Stability entry in data set [4] is “Stable”.

For `CC(C)C(=O)Oc1ccc(COP(=O)(CCCC(=O)N(C)O)OCc2ccc(OC(=O)C(C)C)cc2)cc1`, the IC50 was determined as 140 nM in the data set on Plasmodium falciparum, 640 nM in data set [1] and 990 nM with MRC5. Also, the selectivity ratio in data set [2] was determined as 7.3; in data set [3], 1.6. Besides, the Stability entry in data set [4] is reported as “Stable”.

As for `CC(=O)Oc1ccc(COP(=O)(CCCC(=O)N(C)O)OCc2ccc(OC(C)=O)cc2)cc1`, the figures for the IC50 (with Plasmodium falciparum; in data set [1]; with MRC5) were 490 nM, 19700 nM and 15500 nM, respectively. Moreover, the selectivity ratio in data set [2] turned out to be 32; in data set [3] it was 0.8. The Stability entry in data set [4] is recorded as “Stable”.
